# According to patent publication US11666658B2, “Rifamycin analogs and antibody-drug conjugates thereof” (Regeneron Pharmaceuticals, Inc., priority 2018, dated 2023):
# Assays:
# [1] = tested on: intracellular S. aureus NRS384 in THP-1 macrophages; assay: Intracellular killing assay 2 (rifamycin analogs, S. aureus in THP-1 macrophages); type: cell-based, Staphylococcus aureus; conditions: lowest concentration giving intracellular S. aureus below limit of detection (50 cfu/mL) in THP-1 macrophages, median of at least two experiments; for MIC: Staphylococcus aureus, NRS384, 2 h, read-out: S. aureus Intracellular killing MIC
# Description: THP-1 monocytic cell line was grown in media (RMPI+10% FBS+1% Penicillin/Streptomycin), then seeded at a density of 1e5 cells/well in a 96 well plate and differentiated into macrophages for three days prior to infection using 200 nM PMA. An overnight culture of S. aureus NRS384 was grown in RPMI, washed twice with PBS and resuspended at 1e7 cfu/mL in PBS. THP-1 were washed with warm media (RMPI without FBS) to remove the Penicillin/Streptomycin and then infected with the S. aureus suspension at a multiplicity of infection of 10:1 (S. aureus: macrophages). Plates were spun at 300×g for 5 minutes to synchronize adhesion of the bacteria, then incubated at 37° C. for 2 hours. Free-floating bacteria were removed by washing 2× with warm media and remaining extracellular S. aureus were killed by addition of media containing gentamicin (50 ug/mL). […] The compounds were added in media containing 50 µg/mL gentamicin to prevent extracellular growth of S. aureus. After 2 hours, plates were washed 2× with warm RPMI without FBS, and 100 ul of THP-1 lysis buffer (0.1% Triton in PBS) was added to each well. S. aureus survival was enumerated by colony forming units through serial dilution and plating onto TSA.
# The intracellular MIC value indicated represents the median value of at least two independent experiments, unless indicated otherwise.
# S. aureus NRS384 = assay: Broth minimum inhibitory concentration (MIC) assay 2; type: cell-based, Staphylococcus aureus; conditions: S. aureus NRS384 in TSB, 24 hours at 37° C., OD600, median of at least two independent experiments; for MIC: Staphylococcus aureus, read-out: S. aureus Broth MIC
# Description: To test the potency of rifamycin analogs of the disclosure in vitro, a broth growth inhibition assay was developed. For the assay, S. aureus NRS384 was grown in Tryptic Soy Broth (TSB) overnight, then sub-cultured 1:50 in fresh TSB and grown for an additional two hours. The culture was then pelleted via centrifugation and washed twice in PBS. The culture was then diluted to 1×10^6 cfu/mL in TSB and 100 μL of the suspension was added per well to a 2 mL dilution plate in triplicate. […] The plates were sealed and incubated at 37° C. with shaking for 24 hours, then 150 μL of each sample was added to 96 well microtiter plates and the OD600 nm was read on a Spectramax i3 Minimax 300.
# The broth MIC experiments were assessed in at least two independent experiments and the median value is captured below unless indicated otherwise.
Compound,MIC (S. aureus NRS384) [µM],S. aureus Broth MIC (S. aureus NRS384) [µM],MIC [1] [µM],S. aureus Intracellular killing MIC [1] [µM]
CO[C@H]1/C=C/O[C@@]2(C)Oc3c(C)c(O)c4c(=O)c(c5oc6cc(OC7CCN(C)CC7)cc(O)c6nc-5c4c3C2=O)NC(=O)/C(C)=C\C=C\[C@H](C)[C@H](O)[C@@H](C)[C@@H](O)[C@@H](C)[C@H](OC(C)=O)[C@@H]1C [Analog 68],0.0156,–,0.2,–
CO[C@H]1/C=C/O[C@@]2(C)Oc3c(C)c(O)c4c(=O)c(c5oc6cc(OCCN(C)C)cc(F)c6nc-5c4c3C2=O)NC(=O)/C(C)=C\C=C\[C@H](C)[C@H](O)[C@@H](C)[C@@H](O)[C@@H](C)[C@H](OC(C)=O)[C@@H]1C [Analog 55],0.0156,–,0.2,–
CO[C@H]1/C=C/O[C@@]2(C)Oc3c(C)c(O)c4c(=O)c(c5oc6cc(OCCNCCN)ccc6nc-5c4c3C2=O)NC(=O)/C(C)=C\C=C\[C@H](C)[C@H](O)[C@@H](C)[C@@H](O)[C@@H](C)[C@H](OC(C)=O)[C@@H]1C [Analog 35],0.25,–,> 1,–
CO[C@H]1/C=C/O[C@@]2(C)Oc3c(C)c(O)c4c(=O)c(c5oc6cc(C#CCN(C)C)ccc6nc-5c4c3C2=O)NC(=O)/C(C)=C\C=C\[C@H](C)[C@H](O)[C@@H](C)[C@@H](O)[C@@H](C)[C@H](OC(C)=O)[C@@H]1C [Analog 72],0.0625,–,> 1,–
CCCCOc1cc(OCCN(C)C)cc2oc3c4c(=O)c5c(O)c(C)c6c(c5c-3nc12)C(=O)[C@@](C)(O/C=C/[C@H](OC)[C@@H](C)[C@@H](OC(C)=O)[C@H](C)[C@H](O)[C@H](C)[C@@H](O)[C@@H](C)/C=C/C=C(/C)C(=O)N4)O6 [Analog 50],0.0156,–,1,–
CO[C@H]1/C=C/O[C@@]2(C)Oc3c(C)c(O)c4c(=O)c(c5oc6cc(OCCN(C)C)cc(SC)c6nc-5c4c3C2=O)NC(=O)/C(C)=C\C=C\[C@H](C)[C@H](O)[C@@H](C)[C@@H](O)[C@@H](C)[C@H](OC(C)=O)[C@@H]1C [Analog 60],0.00391,–,0.2,–
CO[C@H]1/C=C/O[C@@]2(C)Oc3c(C)c(O)c4c(=O)c(c5oc6cc(OCCN(C)C)cc(OCc7ccccc7)c6nc-5c4c3C2=O)NC(=O)/C(C)=C\C=C\[C@H](C)[C@H](O)[C@@H](C)[C@@H](O)[C@@H](C)[C@H](OC(C)=O)[C@@H]1C [Analog 52],0.0625,–,1,–
CO[C@H]1/C=C/O[C@@]2(C)Oc3c(C)c(O)c4c(=O)c(c5oc6cc(OCCN(C)C)cc(O)c6nc-5c4c3C2=O)NC(=O)/C(C)=C\C=C\[C@H](C)[C@H](O)[C@@H](C)[C@@H](O)[C@@H](C)[C@H](OC(C)=O)[C@@H]1C [Analog 29],0.00391,–,0.04,–
CO[C@H]1/C=C/O[C@@]2(C)Oc3c(C)c(O)c4c(=O)c(c5oc6cc(CCCN(C)C)ccc6nc-5c4c3C2=O)NC(=O)/C(C)=C\C=C\[C@H](C)[C@H](O)[C@@H](C)[C@@H](O)[C@@H](C)[C@H](OC(C)=O)[C@@H]1C [Analog 75],0.29,–,> 1,–
COc1cc(OCCN(C)C)cc2oc3c4c(=O)c5c(O)c(C)c6c(c5c-3nc12)C(=O)[C@@](C)(O/C=C/[C@H](OC)[C@@H](C)[C@@H](OC(C)=O)[C@H](C)[C@H](O)[C@H](C)[C@@H](O)[C@@H](C)/C=C/C=C(/C)C(=O)N4)O6 [Analog 43],0.00391,–,0.04,–
"CO[C@H]1/C=C/O[C@@]2(C)Oc3c(C)c(O)c4c(=O)c(c5oc6cc(N7CCC(N(C)C)CC7)cc(O)c6nc-5c4c3C2=O)NC(=O)/C(C)=C\C=C\[C@H](C)[C@H](O)[C@@H](C)[C@@H](O)[C@@H](C)[C@H](OC(C)=O)[C@@H]1C [Rifalog, reference compound]",0.000977,–,–,–

# Continued, in another order:
MIC (S. aureus NRS384) [µM],S. aureus Broth MIC (S. aureus NRS384) [µM],Compound,MIC [1] [µM],S. aureus Intracellular killing MIC [1] [µM]
0.0625,–,CO[C@H]1/C=C/O[C@@]2(C)Oc3c(C)c(O)c4c(=O)c(c5oc6cc(O)cc(F)c6nc-5c4c3C2=O)NC(=O)/C(C)=C\C=C\[C@H](C)[C@H](O)[C@@H](C)[C@@H](O)[C@@H](C)[C@H](OC(C)=O)[C@@H]1C [Analog 55a],> 1,–
0.0156,–,CO[C@H]1/C=C/O[C@@]2(C)Oc3c(C)c(O)c4c(=O)c(c5oc6cc(OCCN7CCN(C)CC7)cc(O)c6nc-5c4c3C2=O)NC(=O)/C(C)=C\C=C\[C@H](C)[C@H](O)[C@@H](C)[C@@H](O)[C@@H](C)[C@H](OC(C)=O)[C@@H]1C [Analog 29e],0.04,–
0.0156,–,CO[C@H]1/C=C/O[C@@]2(C)Oc3c(C)c(O)c4c(=O)c(c5oc6cc(OCC7CCN(C)CC7)ccc6nc-5c4c3C2=O)NC(=O)/C(C)=C\C=C\[C@H](C)[C@H](O)[C@@H](C)[C@@H](O)[C@@H](C)[C@H](OC(C)=O)[C@@H]1C [Analog 16g],0.2,–
–,0.0625,CO[C@H]1/C=C/O[C@@]2(C)Oc3c(C)c(O)c4c(=O)c(c5oc6cc(F)ccc6nc-5c4c3C2=O)NCC(=O)/C(C)=C\C=C\[C@H](C)[C@H](O)[C@@H](C)[C@@H](O)[C@@H](C)[C@H](O)[C@@H]1C [Analog P2],–,>1
0.0625,–,CO[C@H]1/C=C/O[C@@]2(C)Oc3c(C)c(O)c4c(=O)c(c5oc6cc(OCCN(C)c7ccccn7)ccc6nc-5c4c3C2=O)NC(=O)/C(C)=C\C=C\[C@H](C)[C@H](O)[C@@H](C)[C@@H](O)[C@@H](C)[C@H](OC(C)=O)[C@@H]1C [Analog 16v],1,–
0.00391,–,CO[C@H]1/C=C/O[C@@]2(C)Oc3c(C)c(O)c4c(=O)c(c5oc6cc(OCCN7CC8CCC7C8)ccc6nc-5c4c3C2=O)NC(=O)/C(C)=C\C=C\[C@H](C)[C@H](O)[C@@H](C)[C@@H](O)[C@@H](C)[C@H](OC(C)=O)[C@@H]1C [Analog 16q],1,–
0.0156,–,CO[C@H]1/C=C/O[C@@]2(C)Oc3c(C)c(O)c4c(=O)c(c5oc6cc(OCCCCN(C)C)ccc6nc-5c4c3C2=O)NC(=O)/C(C)=C\C=C\[C@H](C)[C@H](O)[C@@H](C)[C@@H](O)[C@@H](C)[C@H](OC(C)=O)[C@@H]1C [Analog 16p],1,–
–,0.0156,CO[C@H]1/C=C/O[C@@]2(C)Oc3c(C)c(O)c4c(=O)c(c5oc6cc(F)ccc6nc-5c4c3C2=O)NCC(=O)/C(C)=C\C=C\[C@H](C)[C@H](O)[C@@H](C)[C@@H](O)[C@@H](C)[C@H](OC(C)=O)[C@@H]1C [Analog P3],–,–
–,0.0625,CO[C@H]1/C=C/O[C@@]2(C)Oc3c(C)c(O)c4c(=O)c(c5oc6cccc(O)c6nc-5c4c3C2=O)NCC(=O)/C(C)=C\C=C\[C@H](C)[C@H](O)[C@@H](C)[C@@H](O)[C@@H](C)[C@H](OC(C)=O)[C@@H]1C [Analog P1],–,0.2
0.0156,–,CO[C@H]1/C=C/O[C@@]2(C)Oc3c(C)c(O)c4c(=O)c(c5oc6cc(OCC7CCCN(C)C7)ccc6nc-5c4c3C2=O)NC(=O)/C(C)=C\C=C\[C@H](C)[C@H](O)[C@@H](C)[C@@H](O)[C@@H](C)[C@H](OC(C)=O)[C@@H]1C (some centres unmarked) [Analog 16f],1,–
0.00391,–,CO[C@H]1/C=C/O[C@@]2(C)Oc3c(C)c(O)c4c(=O)c(c5oc6cc(OCC7CCN(C)CC7)cc(O)c6nc-5c4c3C2=O)NC(=O)/C(C)=C\C=C\[C@H](C)[C@H](O)[C@@H](C)[C@@H](O)[C@@H](C)[C@H](OC(C)=O)[C@@H]1C [Analog 29b],0.04,–
0.0625,–,CO[C@H]1/C=C/O[C@@]2(C)Oc3c(C)c(O)c4c(=O)c(c5oc6cc(OCCOCCN(C)C)ccc6nc-5c4c3C2=O)NC(=O)/C(C)=C\C=C\[C@H](C)[C@H](O)[C@@H](C)[C@@H](O)[C@@H](C)[C@H](OC(C)=O)[C@@H]1C [Analog 16s],1,–
0.0156,–,CO[C@H]1/C=C/O[C@@]2(C)Oc3c(C)c(O)c4c(=O)c(c5oc6cc(OCCN7CCCCCC7)ccc6nc-5c4c3C2=O)NC(=O)/C(C)=C\C=C\[C@H](C)[C@H](O)[C@@H](C)[C@@H](O)[C@@H](C)[C@H](OC(C)=O)[C@@H]1C [Analog 16n],1,–
0.00391,–,CO[C@H]1/C=C/O[C@@]2(C)Oc3c(C)c(O)c4c(=O)c(c5oc6cc(OCCCN(C)C)ccc6nc-5c4c3C2=O)NC(=O)/C(C)=C\C=C\[C@H](C)[C@H](O)[C@@H](C)[C@@H](O)[C@@H](C)[C@H](OC(C)=O)[C@@H]1C [Analog 16o],0.2,–
0.00391,–,CO[C@H]1/C=C/O[C@@]2(C)Oc3c(C)c(O)c4c(=O)c(c5oc6cc(OCCN7CCCC7)cc(O)c6nc-5c4c3C2=O)NC(=O)/C(C)=C\C=C\[C@H](C)[C@H](O)[C@@H](C)[C@@H](O)[C@@H](C)[C@H](OC(C)=O)[C@@H]1C [Analog 29c],0.04,–
